Source: patent publication US7074789B2, “Kinase inhibitors” (Amgen Inc., priority 1999, dated 2006)
Read-outs that look alike come from different tables or passages of the source.

Columns and labels:
Type in all cases: biochemical
[1] = target: T1, EGFR (Homo sapiens, UniProt P00533); assay: Kinase inhibition assay (33P transfer), EGFR; conditions: Table 2, kinase inhibition class; read-out: EGFR-1
T1 construct: Kinases are expressed as either kinase domains or full length constructs; made in house
Summary of the method: (§1)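 Using immobilised substrate copolymers (poly(Glu,Tyr) 4:1; poly(Arg,Ser) 3:1) and [33P]ATP, purified fusion kinases were allowed to react; plates were then rinsed in 0.5% phosphoric acid and counted in a scintillation detector. Half-maximal inhibition of label transfer defines IC50.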

[2] = target: T2, c-Met (Homo sapiens, UniProt P08581); assay: Kinase inhibition assay (33P transfer), c-Met; conditions: Table 2, kinase inhibition class; read-out: Met-1
T2 construct: Kinases are expressed as either kinase domains or full length constructs; made in house
Summary of the method: as §1

[3] = target: T3, Itk (Homo sapiens, UniProt Q08881); assay: Kinase inhibition assay (33P transfer), Itk; conditions: read-out: Itk-1
T3 construct: Kinases are expressed as either kinase domains or full length constructs; made in house
T3 sequence (Q08881 1-620): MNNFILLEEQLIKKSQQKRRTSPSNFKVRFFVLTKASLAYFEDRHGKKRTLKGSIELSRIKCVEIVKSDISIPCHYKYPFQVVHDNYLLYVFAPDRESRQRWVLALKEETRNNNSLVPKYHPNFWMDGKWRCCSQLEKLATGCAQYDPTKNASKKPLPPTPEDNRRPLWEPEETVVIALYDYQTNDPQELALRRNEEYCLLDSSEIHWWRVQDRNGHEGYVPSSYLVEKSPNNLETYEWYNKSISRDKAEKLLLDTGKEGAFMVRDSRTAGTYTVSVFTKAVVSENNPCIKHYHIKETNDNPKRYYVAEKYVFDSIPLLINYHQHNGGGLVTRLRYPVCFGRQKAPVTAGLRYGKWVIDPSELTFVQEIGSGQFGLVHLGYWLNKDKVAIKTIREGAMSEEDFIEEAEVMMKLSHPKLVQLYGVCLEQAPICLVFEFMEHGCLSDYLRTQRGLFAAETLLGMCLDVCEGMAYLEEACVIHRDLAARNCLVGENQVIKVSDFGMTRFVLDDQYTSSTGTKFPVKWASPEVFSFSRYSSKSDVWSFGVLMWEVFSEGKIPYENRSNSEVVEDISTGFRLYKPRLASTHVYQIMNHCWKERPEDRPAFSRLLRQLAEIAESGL
Summary of the method: as §1

[4] = target: T4, Kdr (Homo sapiens, UniProt P35968); assay: Kinase inhibition assay (33P transfer), Kdr; conditions: read-out: KDR-1
T4 construct: Kinases are expressed as either kinase domains or full length constructs; made in house
Summary of the method: (§2)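 Liquid scintillation counting of 33P on plate-bound synthetic substrates gives kinase activity. Plates are washed in 0.5% phosphoric acid first; kinases are tagged recombinant proteins from E. coli or baculovirus-infected High Five cells.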

[5] = target: T5, Lck (Homo sapiens, UniProt P06239); assay: Kinase inhibition assay (33P transfer), Lck; conditions: read-out: Lck-1
T5 construct: Kinases are expressed as either kinase domains or full length constructs; made in house
Summary of the method: as §2

[6] = target: T6, AKT (Homo sapiens, UniProt Q9Y243); assay: Kinase inhibition assay (33P transfer), AKT; conditions: Table 2, kinase inhibition class; read-out: AKT3-1
T6 construct: Kinases are expressed as either kinase domains or full length constructs; made in house
Summary of the method: as §2

[7] = target: T7, Tek (Homo sapiens, UniProt Q02763); assay: Kinase inhibition assay (33P transfer), Tek; conditions: read-out: Tek-1
T7 construct: Kinases are expressed as either kinase domains or full length constructs; made in house
Summary of the method: as §1

[8] = target: T8, Zap-70 (Homo sapiens, UniProt P43403); assay: Kinase inhibition assay (33P transfer), Zap-70; conditions: read-out: Zap-1
T8 construct: Kinases are expressed as either kinase domains or full length constructs; made in house
T8 sequence (P43403 1-619): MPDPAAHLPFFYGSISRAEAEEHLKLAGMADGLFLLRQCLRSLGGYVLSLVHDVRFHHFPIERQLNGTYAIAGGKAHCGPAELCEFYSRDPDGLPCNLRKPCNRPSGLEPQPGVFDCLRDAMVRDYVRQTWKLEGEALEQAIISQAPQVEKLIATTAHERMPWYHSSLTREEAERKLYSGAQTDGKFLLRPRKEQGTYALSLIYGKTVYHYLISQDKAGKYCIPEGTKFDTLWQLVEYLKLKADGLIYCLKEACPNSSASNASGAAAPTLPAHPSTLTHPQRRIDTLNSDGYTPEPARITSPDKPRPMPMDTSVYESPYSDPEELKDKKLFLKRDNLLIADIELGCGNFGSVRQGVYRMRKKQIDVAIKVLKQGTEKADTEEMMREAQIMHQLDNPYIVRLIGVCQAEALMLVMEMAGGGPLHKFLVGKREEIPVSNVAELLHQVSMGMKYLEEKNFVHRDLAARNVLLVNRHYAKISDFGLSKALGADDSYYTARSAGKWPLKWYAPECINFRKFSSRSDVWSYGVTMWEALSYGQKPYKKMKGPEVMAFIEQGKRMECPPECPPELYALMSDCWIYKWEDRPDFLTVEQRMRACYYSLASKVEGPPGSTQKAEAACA
Summary of the method: as §2

T7 sequence (Q02763 23-1124, species assumed): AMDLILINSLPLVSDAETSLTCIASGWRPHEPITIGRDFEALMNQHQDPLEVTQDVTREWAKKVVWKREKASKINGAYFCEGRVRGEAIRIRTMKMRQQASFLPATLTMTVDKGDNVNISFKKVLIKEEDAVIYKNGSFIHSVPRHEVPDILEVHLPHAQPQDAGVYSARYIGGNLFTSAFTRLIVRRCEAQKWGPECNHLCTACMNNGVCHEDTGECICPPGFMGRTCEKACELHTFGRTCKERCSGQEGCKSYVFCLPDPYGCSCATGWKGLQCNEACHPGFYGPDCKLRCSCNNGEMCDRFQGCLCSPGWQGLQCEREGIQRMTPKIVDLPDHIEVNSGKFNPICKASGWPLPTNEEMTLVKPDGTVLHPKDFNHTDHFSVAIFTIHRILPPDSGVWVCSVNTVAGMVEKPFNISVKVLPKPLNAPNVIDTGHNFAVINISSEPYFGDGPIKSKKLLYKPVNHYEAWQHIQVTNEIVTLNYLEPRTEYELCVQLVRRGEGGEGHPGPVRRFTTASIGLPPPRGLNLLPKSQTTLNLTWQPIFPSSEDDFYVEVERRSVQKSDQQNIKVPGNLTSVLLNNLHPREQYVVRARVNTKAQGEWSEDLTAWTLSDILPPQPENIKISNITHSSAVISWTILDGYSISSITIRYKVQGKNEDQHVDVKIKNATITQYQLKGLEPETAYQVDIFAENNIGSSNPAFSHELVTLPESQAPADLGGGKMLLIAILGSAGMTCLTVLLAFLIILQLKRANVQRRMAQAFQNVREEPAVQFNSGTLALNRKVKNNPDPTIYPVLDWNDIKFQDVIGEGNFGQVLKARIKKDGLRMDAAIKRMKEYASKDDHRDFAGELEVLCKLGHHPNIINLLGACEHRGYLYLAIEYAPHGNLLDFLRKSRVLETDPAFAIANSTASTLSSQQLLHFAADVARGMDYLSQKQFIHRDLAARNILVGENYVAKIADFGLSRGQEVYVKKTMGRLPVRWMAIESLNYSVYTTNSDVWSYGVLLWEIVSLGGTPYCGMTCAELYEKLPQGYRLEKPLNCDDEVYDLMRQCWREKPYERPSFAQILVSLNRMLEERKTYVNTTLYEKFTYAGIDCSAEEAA
T4 sequence (P35968 20-1356, species assumed): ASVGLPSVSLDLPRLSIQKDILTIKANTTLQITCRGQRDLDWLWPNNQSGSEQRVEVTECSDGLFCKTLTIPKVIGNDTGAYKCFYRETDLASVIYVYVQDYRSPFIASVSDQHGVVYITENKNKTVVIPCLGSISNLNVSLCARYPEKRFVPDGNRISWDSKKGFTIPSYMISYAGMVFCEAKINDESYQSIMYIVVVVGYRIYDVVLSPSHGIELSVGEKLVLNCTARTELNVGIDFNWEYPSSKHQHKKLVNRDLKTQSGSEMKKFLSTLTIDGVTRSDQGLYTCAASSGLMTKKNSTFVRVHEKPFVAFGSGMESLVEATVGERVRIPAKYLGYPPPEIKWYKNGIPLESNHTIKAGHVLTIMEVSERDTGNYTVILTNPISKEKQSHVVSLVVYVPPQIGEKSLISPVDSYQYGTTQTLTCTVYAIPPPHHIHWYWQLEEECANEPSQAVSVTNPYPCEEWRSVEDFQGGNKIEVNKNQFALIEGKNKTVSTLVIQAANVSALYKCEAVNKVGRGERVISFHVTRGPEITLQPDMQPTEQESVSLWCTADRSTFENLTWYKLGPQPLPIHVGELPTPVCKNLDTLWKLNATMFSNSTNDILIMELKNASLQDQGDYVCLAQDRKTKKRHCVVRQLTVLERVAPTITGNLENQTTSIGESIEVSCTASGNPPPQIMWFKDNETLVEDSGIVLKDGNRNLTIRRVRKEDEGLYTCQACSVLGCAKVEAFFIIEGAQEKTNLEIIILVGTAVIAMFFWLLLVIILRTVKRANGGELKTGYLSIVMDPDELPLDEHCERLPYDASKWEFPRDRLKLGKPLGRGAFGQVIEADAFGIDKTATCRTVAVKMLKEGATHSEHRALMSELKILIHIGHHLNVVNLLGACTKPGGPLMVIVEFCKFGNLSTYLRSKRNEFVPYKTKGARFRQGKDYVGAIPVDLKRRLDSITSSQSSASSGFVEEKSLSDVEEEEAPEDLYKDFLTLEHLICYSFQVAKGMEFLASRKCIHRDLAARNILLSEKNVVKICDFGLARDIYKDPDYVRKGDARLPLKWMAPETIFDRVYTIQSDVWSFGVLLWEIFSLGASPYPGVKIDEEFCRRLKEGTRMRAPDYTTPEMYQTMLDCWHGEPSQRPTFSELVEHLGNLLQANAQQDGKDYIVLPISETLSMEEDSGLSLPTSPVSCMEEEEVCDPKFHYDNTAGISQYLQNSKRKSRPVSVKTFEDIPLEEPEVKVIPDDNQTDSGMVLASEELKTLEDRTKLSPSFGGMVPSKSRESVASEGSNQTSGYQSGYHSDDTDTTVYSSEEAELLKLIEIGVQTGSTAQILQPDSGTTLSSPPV
T5 sequence (P06239 whole entry, species assumed, the tested form may be a part): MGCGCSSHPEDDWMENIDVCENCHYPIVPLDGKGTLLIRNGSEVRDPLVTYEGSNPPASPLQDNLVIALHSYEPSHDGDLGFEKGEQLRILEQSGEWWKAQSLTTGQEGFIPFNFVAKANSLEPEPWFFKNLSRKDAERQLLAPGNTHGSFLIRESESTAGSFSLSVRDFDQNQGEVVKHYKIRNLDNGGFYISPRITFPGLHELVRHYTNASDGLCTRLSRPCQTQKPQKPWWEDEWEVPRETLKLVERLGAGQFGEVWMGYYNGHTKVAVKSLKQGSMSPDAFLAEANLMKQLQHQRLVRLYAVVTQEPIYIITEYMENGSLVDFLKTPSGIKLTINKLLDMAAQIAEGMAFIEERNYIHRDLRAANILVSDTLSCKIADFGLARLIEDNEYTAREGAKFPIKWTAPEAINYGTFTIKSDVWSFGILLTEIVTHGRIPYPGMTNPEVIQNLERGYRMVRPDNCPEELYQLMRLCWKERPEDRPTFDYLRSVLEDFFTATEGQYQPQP
T6 sequence (Q9Y243 whole entry, the tested form may be a part): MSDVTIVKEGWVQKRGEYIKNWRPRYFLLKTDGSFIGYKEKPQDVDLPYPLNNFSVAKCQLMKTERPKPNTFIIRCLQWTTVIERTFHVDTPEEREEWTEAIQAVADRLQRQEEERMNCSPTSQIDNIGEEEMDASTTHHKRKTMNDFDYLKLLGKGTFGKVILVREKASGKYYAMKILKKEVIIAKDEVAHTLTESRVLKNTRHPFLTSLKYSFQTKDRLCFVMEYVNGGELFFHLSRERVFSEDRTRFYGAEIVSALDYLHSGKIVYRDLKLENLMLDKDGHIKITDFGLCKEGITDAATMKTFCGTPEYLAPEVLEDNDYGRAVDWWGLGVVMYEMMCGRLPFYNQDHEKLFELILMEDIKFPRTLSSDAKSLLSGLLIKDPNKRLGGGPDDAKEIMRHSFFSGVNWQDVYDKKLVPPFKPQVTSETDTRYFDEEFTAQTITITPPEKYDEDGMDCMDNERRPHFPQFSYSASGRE
T2 sequence (P08581 25-1390): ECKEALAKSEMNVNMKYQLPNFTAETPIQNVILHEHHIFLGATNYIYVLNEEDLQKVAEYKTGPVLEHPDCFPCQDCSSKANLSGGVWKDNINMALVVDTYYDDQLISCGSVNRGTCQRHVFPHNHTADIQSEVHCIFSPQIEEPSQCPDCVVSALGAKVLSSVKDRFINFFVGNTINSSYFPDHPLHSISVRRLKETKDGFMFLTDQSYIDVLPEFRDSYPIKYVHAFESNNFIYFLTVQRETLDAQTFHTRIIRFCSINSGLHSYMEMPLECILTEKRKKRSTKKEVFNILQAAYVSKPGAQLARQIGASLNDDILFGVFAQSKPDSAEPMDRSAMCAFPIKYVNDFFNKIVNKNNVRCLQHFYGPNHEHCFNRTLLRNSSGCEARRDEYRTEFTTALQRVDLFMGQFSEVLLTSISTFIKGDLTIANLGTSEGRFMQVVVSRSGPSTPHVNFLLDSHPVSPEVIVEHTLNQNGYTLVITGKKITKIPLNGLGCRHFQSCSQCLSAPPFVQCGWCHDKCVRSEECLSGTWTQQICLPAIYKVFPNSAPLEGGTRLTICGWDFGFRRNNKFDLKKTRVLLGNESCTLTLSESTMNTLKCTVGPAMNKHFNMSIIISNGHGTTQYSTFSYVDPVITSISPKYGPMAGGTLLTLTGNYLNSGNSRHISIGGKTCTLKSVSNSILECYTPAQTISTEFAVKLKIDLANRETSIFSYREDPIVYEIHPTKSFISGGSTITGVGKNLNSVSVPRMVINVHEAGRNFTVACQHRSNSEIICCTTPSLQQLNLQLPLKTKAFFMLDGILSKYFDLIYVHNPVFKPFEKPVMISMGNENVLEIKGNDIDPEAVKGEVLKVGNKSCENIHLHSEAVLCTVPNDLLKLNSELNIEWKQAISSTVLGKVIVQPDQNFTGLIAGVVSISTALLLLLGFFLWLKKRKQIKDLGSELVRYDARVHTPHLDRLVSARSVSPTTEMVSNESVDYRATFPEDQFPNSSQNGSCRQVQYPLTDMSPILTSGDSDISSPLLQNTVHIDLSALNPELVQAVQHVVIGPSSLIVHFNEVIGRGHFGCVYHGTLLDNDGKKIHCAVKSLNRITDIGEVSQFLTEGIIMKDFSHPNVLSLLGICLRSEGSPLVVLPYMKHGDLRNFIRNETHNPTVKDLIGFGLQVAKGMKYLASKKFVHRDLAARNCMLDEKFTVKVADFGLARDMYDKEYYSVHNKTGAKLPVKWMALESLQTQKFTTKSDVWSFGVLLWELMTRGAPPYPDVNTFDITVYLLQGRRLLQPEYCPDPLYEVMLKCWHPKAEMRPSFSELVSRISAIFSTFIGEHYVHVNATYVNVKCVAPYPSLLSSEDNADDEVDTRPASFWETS

Compound | IC50 [1] | IC50 [2] | IC50 ([3]; Table 3) | IC50 ([4]; Table 3) | IC50 ([5]; Table 3) | IC50 [6] | IC50 [7] | IC50 ([8]; Table 3) | IC50 [3] | IC50 [4] | IC50 [5] | IC50 [8]
COc1cc(Nc2ncnc(Nc3nccs3)n2)cc(OC)c1OC [Compound 442] | > 12.5 µM | > 12.5 µM | > 12.5 µM | 6.66 to 9.71 µM | > 12.5 µM | > 12.5 µM | > 12.5 µM | > 12.5 µM | – | – | – | –
COc1cc(Nc2ncnc(-n3c(NCc4ccccn4)nc4ccccc43)n2)cc(OCCN2CCOCC2)c1OC [Compound 507] | > 7.71 µM | > 7.71 µM | – | – | – | > 7.71 µM | 6 to 7.71 µM | – | > 7.71 µM | < 0.685 µM | 0.685 to 4.11 µM | > 7.71 µM
O=c1[nH]c2ccccc2n1-c1ncnc(Nc2ccc(Cl)cc2Cl)n1 [Compound 504] | > 12.1 µM | > 12.1 µM | – | – | – | > 12.1 µM | 1.07 to 6.43 µM | – | > 12.1 µM | > 12.1 µM | > 12.1 µM | > 12.1 µM
COc1cc(Nc2ncnc(-c3c(O)n(C)c4ccccc34)n2)cc(OC)c1OC [Compound 465] | > 11 µM | > 11 µM | > 11 µM | 0.982 to 5.89 µM | > 11 µM | > 11 µM | > 11 µM | > 11 µM | – | – | – | –
O=c1[nH]c2ccccc2n1-c1ncnc(Nc2ccncn2)n1 [Compound 492] | 7.84 to 11.4 µM | 7.84 to 11.4 µM | – | – | – | > 14.7 µM | 7.84 to 11.4 µM | – | > 14.7 µM | 7.84 to 11.4 µM | > 14.7 µM | 11.4 to 14.7 µM
O=c1[nH]c2ccccc2n1-c1ncnc(Nc2ccccc2[N+](=O)[O-])n1 [Compound 493] | > 12.9 µM | 10 to 12.9 µM | – | – | – | > 12.9 µM | 6.87 to 10 µM | – | > 12.9 µM | > 12.9 µM | > 12.9 µM | > 12.9 µM
COc1cc(Nc2ncnc(Nc3n[nH]c(Nc4ccc(Cl)cc4)n3)n2)cc(OC)c1OC [Compound 1003] | 5.11 to 7.45 µM | 0.851 to 5.11 µM | – | – | – | > 9.58 µM | 0.851 to 5.11 µM | – | 0.851 to 5.11 µM | 0.851 to 5.11 µM | 0.851 to 5.11 µM | 5.11 to 7.45 µM
COc1cc(Nc2ncnc(-c3cccc4ccccc34)n2)cc(OC)c1OC [Compound 611] | > 11.6 µM | > 11.6 µM | – | – | – | > 11.6 µM | 6.18 to 9.01 µM | – | 9.01 to 11.6 µM | 1.03 to 6.18 µM | 1.03 to 6.18 µM | > 11.6 µM
COc1cc(Nc2ncnc(-n3c(N[C@H](CO)c4ccccc4)nc4ccccc43)n2)cc(OC)c1OC [Compound 1035] | > 8.76 µM | > 8.76 µM | – | – | – | > 8.76 µM | > 8.76 µM | – | > 8.76 µM | < 0.779 µM | > 8.76 µM | > 8.76 µM
COc1cc(Nc2ncnc(-n3ccc4ccc(F)cc43)n2)cc(OC)c1OC [Compound 464] | > 11.4 µM | > 11.4 µM | > 11.4 µM | 1.01 to 6.07 µM | 6.07 to 8.85 µM | > 11.4 µM | > 11.4 µM | > 11.4 µM | – | – | – | –
COc1cc(OC)nc(Nc2ncnc(-n3c(=O)[nH]c4ccccc43)n2)n1 [Compound 491] | > 12.3 µM | > 12.3 µM | – | – | – | > 12.3 µM | 1.09 to 6.55 µM | – | > 12.3 µM | 9.55 to 12.3 µM | > 12.3 µM | > 12.3 µM
Nc1ncnc(Nc2ccc3c(c2)OCO3)n1 [Compound 1025] | 15.1 to 19.5 µM | > 19.5 µM | > 19.5 µM | 10.4 to 15.1 µM | > 19.5 µM | > 19.5 µM | > 19.5 µM | 15.1 to 19.5 µM | – | – | – | –
COc1cc(Nc2ncnc(Nc3ccc(C(C)=O)cc3)n2)cc(OC)c1OC [Compound 698] | 6.07 to 8.85 µM | > 11.4 µM | – | – | – | > 11.4 µM | 8.85 to 11.4 µM | – | 1.01 to 6.07 µM | < 1.01 µM | < 1.01 µM | > 11.4 µM

Now from value to molecule:

IC50 [1] | IC50 [2] | IC50 ([3]; Table 3) | IC50 ([4]; Table 3) | IC50 ([5]; Table 3) | IC50 [6] | IC50 [7] | IC50 ([8]; Table 3) | IC50 [3] | IC50 [4] | IC50 [5] | IC50 [8] | Compound
1.15 to 6.91 µM | 1.15 to 6.91 µM | – | – | – | 6.91 to 10.1 µM | 1.15 to 6.91 µM | – | 1.15 to 6.91 µM | < 1.15 µM | 1.15 to 6.91 µM | 1.15 to 6.91 µM | Nc1nc2ccccc2n1-c1ncnc(Nc2ccc3c(c2)OCO3)n1 [Compound 526]
> 13.5 µM | > 13.5 µM | – | – | – | > 13.5 µM | > 13.5 µM | – | > 13.5 µM | 1.2 to 7.18 µM | > 13.5 µM | > 13.5 µM | COc1ccc(Nc2ncnc(-n3c(N)nc4ccccc43)n2)cn1 [Compound 648]
6.59 to 9.61 µM | > 12.4 µM | – | – | – | > 12.4 µM | > 12.4 µM | – | > 12.4 µM | < 1.1 µM | 6.59 to 9.61 µM | > 12.4 µM | COc1ccc(Nc2ncnc(-n3c(=O)[nH]c4ccccc43)n2)cc1OC [Compound 494]
1.08 to 6.48 µM | 1.08 to 6.48 µM | 1.08 to 6.48 µM | 1.08 to 6.48 µM | 1.08 to 6.48 µM | 6.48 to 9.45 µM | 1.08 to 6.48 µM | 9.45 to 12.1 µM | – | – | – | – | Nc1nc2ccccc2n1-c1ncnc(Nc2ccc(-c3cnco3)cc2)n1 [Compound 438]
1.05 to 6.33 µM | 1.05 to 6.33 µM | – | – | – | 1.05 to 6.33 µM | 1.05 to 6.33 µM | – | 9.22 to 11.9 µM | 1.05 to 6.33 µM | 1.05 to 6.33 µM | 1.05 to 6.33 µM | Nc1nc2ccccc2n1-c1ncnc(Nc2ccc(-c3ccccc3)cc2)n1 [Compound 480]
> 9.04 µM | 7.03 to 9.04 µM | – | – | – | > 9.04 µM | > 9.04 µM | – | > 9.04 µM | < 0.804 µM | 0.804 to 4.82 µM | > 9.04 µM | COc1cc(Nc2ncnc(-n3c(N[C@H](C)c4ccccc4)nc4ccccc43)n2)cc(OC)c1OC [Compound 1034]
> 12.5 µM | 9.74 to 12.5 µM | – | – | – | > 12.5 µM | 6.68 to 9.74 µM | – | 6.68 to 9.74 µM | 6.68 to 9.74 µM | 6.68 to 9.74 µM | > 12.5 µM | CC(C)(C)c1ccc(Nc2ncnc(-n3c(N)nc4ccccc43)n2)cc1 [Compound 525]
1.18 to 7.11 µM | 1.18 to 7.11 µM | – | – | – | 1.18 to 7.11 µM | 1.18 to 7.11 µM | – | 1.18 to 7.11 µM | 1.18 to 7.11 µM | 1.18 to 7.11 µM | 1.18 to 7.11 µM | Nc1nc2ccccc2n1-c1ncnc(Nc2ccc(Cl)cc2)n1 [Compound 478]
